In patent US20180155344A1, “TRICYCLIC PIPERIDINE COMPOUNDS” (ACTELION PHARMACEUTICALS LTD, priority 2015, published 2018):
Counter-ions that a name gives are not always drawn.

These compounds were tested against T1, human TPH1 (Homo sapiens, UniProt P17752) (assay: biochemical).
T1 sequence (P17752 1-444): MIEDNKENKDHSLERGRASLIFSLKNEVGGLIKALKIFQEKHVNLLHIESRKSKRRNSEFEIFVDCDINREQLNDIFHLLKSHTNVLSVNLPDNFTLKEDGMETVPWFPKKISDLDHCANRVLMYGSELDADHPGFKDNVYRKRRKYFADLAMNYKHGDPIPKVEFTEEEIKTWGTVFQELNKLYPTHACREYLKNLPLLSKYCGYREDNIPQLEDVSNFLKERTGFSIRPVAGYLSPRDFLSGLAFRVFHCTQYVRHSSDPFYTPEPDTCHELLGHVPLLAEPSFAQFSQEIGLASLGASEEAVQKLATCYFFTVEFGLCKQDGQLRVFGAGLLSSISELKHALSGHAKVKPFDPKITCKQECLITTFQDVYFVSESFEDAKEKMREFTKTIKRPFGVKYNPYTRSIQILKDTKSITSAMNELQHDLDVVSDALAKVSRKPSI
Method in brief: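 Inhibition is derived from 5-hydroxy-L-tryptophan fluorescence (540 nm emission, 300 nm excitation) after perchloric acid stop, relative to DMSO vehicle. Recombinant full-length human enzyme (40-80 nM) reacts with 40 μM tryptophan plus 100 μM methyltetrahydropterin, pH 7.6 Tris/DTT/catalase, 15° C, 60 min.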

IC50 | Structure (SMILES)
40 nM | COc1ccc(C2c3c(nc4ccccn34)CCN2C(=O)COc2ccc(NS(C)(=O)=O)nc2Cl)c(F)c1 (stereo not drawn) [Example 1.3.2, N-(6-chloro-5-(2-(1-(2-fluoro-4-methoxyphenyl)-3,4-dihydroimidazo[1,2-a:5,4-c′]dipyridin-2(1H)-yl)-2-oxoethoxy)pyridin-2-yl)methanesulfonamide]
209 nM | O=C(COc1ccc2ccccc2c1)N1CCc2nc3cc(C(F)(F)F)ccn3c2C1c1ncc2ccccn12 (stereo not drawn) [Example 3.43.2, 1-(1-(imidazo[1,5-a]pyridin-3-yl)-7-(trifluoromethyl)-3,4-dihydroimidazo[1,2-a:5,4-c′]dipyridin-2(1H)-yl)-2-(naphthalen-2-yloxy)ethan-1-one]
72 nM | CS(=O)(=O)Nc1ccc(OCC(=O)N2CCc3nc4ccc(F)cn4c3C2c2ccc(Cl)cc2F)c(Cl)n1 (stereo not drawn) [Example 11.2.1, N-(6-chloro-5-(2-(1-(4-chloro-2-fluorophenyl)-8-fluoro-3,4-dihydroimidazo[1,2-a:5,4-c′]dipyridin-2(1H)-yl)-2-oxoethoxy)pyridin-2-yl)methanesulfonamide]
41 nM | O=C(COc1ccc(CN2CCOCC2)cc1Cl)N1CCc2nc3cc(C(F)(F)F)ccn3c2C1c1cc(-c2ccc(F)cc2)on1 (stereo not drawn) [Example 3.47.2, 2-(2-chloro-4-(morpholinomethyl)phenoxy)-1-(1-(5-(4-fluorophenyl)isoxazol-3-yl)-7-(trifluoromethyl)-3,4-dihydroimidazo[1,2-a:5,4-c′]dipyridin-2(1H)-yl)ethan-1-one]
104 nM | CCOc1ccc(C2c3c(nc4cc(C(F)(F)F)ccn34)CCN2C(=O)COc2ccc3ccccc3c2)cc1 (stereo not drawn) [Example 3.25.1, 1-(1-(4-ethoxyphenyl)-7-(trifluoromethyl)-3,4-dihydroimidazo[1,2-a:5,4-c′]dipyridin-2(1H)-yl)-2-(naphthalen-2-yloxy)ethan-1-one]
10 nM | COc1ccc(C2c3c(nc4cc(C(C)(C)C)ccn34)CCN2C(=O)COc2ccc(Cl)cc2Cl)cc1OC (stereo not drawn) [Example 5.1.1, 1-(7-(tert-butyl)-1-(3,4-dimethoxyphenyl)-3,4-dihydroimidazo[1,2-a:5,4-c′]dipyridin-2(1H)-yl)-2-(2,4-dichlorophenoxy)ethan-1-one]
202 nM | O=C(COc1ccc(CN2CCOCC2)cc1Cl)N1CCc2nc3cc(C(F)(F)F)ccn3c2C1c1ccc(F)cc1 (stereo not drawn) [Example 3.29.2, 2-(2-chloro-4-(morpholinomethyl)phenoxy)-1-(1-(4-fluorophenyl)-7-(trifluoromethyl)-3,4-dihydroimidazo[1,2-a:5,4-c′]dipyridin-2(1H)-yl)ethan-1-one]
34 nM | CCc1nc(NS(C)(=O)=O)ccc1OCC(=O)N1CCc2nc3ccc(F)cn3c2C1c1ccc(Cl)cc1F (stereo not drawn) [Example 11.2.2, N-(5-(2-(1-(4-chloro-2-fluorophenyl)-8-fluoro-3,4-dihydroimidazo[1,2-a:5,4-c′]dipyridin-2(1H)-yl)-2-oxoethoxy)-6-ethylpyridin-2-yl)methanesulfonamide]
89 nM | COc1ccc([C@@H]2c3c(nc4cc(Cl)ccn34)CCN2C(=O)COc2ccc(N3CCOCC3)cc2Cl)cn1 [Example 2.5.1, 1-((1R)-7-chloro-1-(6-methoxypyridin-3-yl)-3,10a-dihydroimidazo[1,2-a:5,4-c′]dipyridin-2(1H)-yl)-2-(2-chloro-4-morpholinophenoxy)ethan-1-one]
5 nM | O=C(COc1ccc(N2CCOCC2)nc1Cl)N1CCc2nc3ccccn3c2C1c1ccc(Cl)cc1F (stereo not drawn) [Example 1.4.5, 1-(1-(4-chloro-2-fluorophenyl)-3,4-dihydroimidazo[1,2-a:5,4-c′]dipyridin-2(1H)-yl)-2-((2-chloro-6-morpholinopyridin-3-yl)oxy)ethan-1-one]
5 nM | CS(=O)(=O)Nc1ccc(OCC(=O)N2CCc3nc4cc(C(F)(F)F)ccn4c3C2c2ccc(Cl)cc2F)c(Cl)n1 (stereo not drawn) [Example 3.4.7, N-(6-chloro-5-(2-(1-(4-chloro-2-fluorophenyl)-7-(trifluoromethyl)-3,4-dihydroimidazo[1,2-a:5,4-c′]dipyridin-2(1H)-yl)-2-oxoethoxy)pyridin-2-yl)methanesulfonamide]
8 nM | O=C(COc1ccc(N2CCOCC2)nc1Cl)N1CCc2nc3ccccn3c2C1c1ncc(C2CC2)cc1F (stereo not drawn) [Example 1.12.1, 2-((2-chloro-6-morpholinopyridin-3-yl)oxy)-1-(1-(5-cyclopropyl-3-fluoropyridin-2-yl)-3,4-dihydroimidazo[1,2-a:5,4-c′]dipyridin-2(1H)-yl)ethan-1-one]
23 nM | O=C(COc1ccc(CN2CCOCC2)cc1Cl)N1CCc2nc3cc(C(F)(F)F)ccn3c2C1c1nc2ccccc2s1 (stereo not drawn) [Example 3.44.2, 1-(1-(benzo[d]thiazol-2-yl)-7-(trifluoromethyl)-3,4-dihydroimidazo[1,2-a:5,4-c′]dipyridin-2(1H)-yl)-2-(2-chloro-4-(morpholinomethyl)phenoxy)ethan-1-one]
6 nM | O=C(COc1ccc(N2CCOCC2)cc1Cl)N1CCc2nc3cc(C(F)(F)F)ccn3c2C1c1ccc(C2CC2)cc1F (stereo not drawn) [Example 3.5.2, 2-(2-chloro-4-morpholinophenoxy)-1-(1-(4-cyclopropyl-2-fluorophenyl)-7-(trifluoromethyl)-3,4-dihydroimidazo[1,2-a:5,4-c′]dipyridin-2(1H)-yl)ethan-1-one]
54 nM | COCCOc1ccc(C2c3c(nc4ccccn34)CCN2C(=O)COc2ccc(C(=O)NC3CC3)nc2Cl)c(F)c1 (stereo not drawn) [Example 1.21.1, 6-chloro-N-cyclopropyl-5-(2-(1-(2-fluoro-4-(2-methoxyethoxy)phenyl)-3,4-dihydroimidazo[1,2-a:5,4-c′]dipyridin-2(1H)-yl)-2-oxoethoxy)picolinamide]
44 nM | COc1ccc(C2c3c(nc4cc(C(F)(F)F)ccn34)CCN2C(=O)COc2ccc3ccccc3c2)cc1 (stereo not drawn) [Example 3.24.1, 1-(1-(4-methoxyphenyl)-7-(trifluoromethyl)-3,4-dihydroimidazo[1,2-a:5,4-c′]dipyridin-2(1H)-yl)-2-(naphthalen-2-yloxy)ethan-1-one]
34 nM | O=C(COc1cccnc1Cl)N1CCc2nc3ccccn3c2C1c1ccc(C2CC2)cc1F (stereo not drawn) [Example 1.5.4, 2-((2-chloropyridin-3-yl)oxy)-1-(1-(4-cyclopropyl-2-fluorophenyl)-3,4-dihydroimidazo[1,2-a:5,4-c′]dipyridin-2(1H)-yl)ethan-1-one]
209 nM | O=C(COc1ccc(CN2CCOCC2)cc1Cl)N1CCc2nc3ccccn3c2C1c1cccnc1F (stereo not drawn) [Example 1.2.1, 2-(2-chloro-4-(morpholinomethyl)phenoxy)-1-(1-(2-fluoropyridin-3-yl)-3,4-dihydroimidazo[1,2-a:5,4-c′]dipyridin-2(1H)-yl)ethan-1-one]
8 nM | CCc1cc2nc3c(n2cc1C)C(c1ccc(OC)c(OC)c1)N(C(=O)COc1ccc2ccccc2c1C)CC3 (stereo not drawn) [Example 6.1.4, 1-(1-(3,4-dimethoxyphenyl)-7-ethyl-8-methyl-3,4-dihydroimidazo[1,2-a:5,4-c′]dipyridin-2(1H)-yl)-2-((1-methylnaphthalen-2-yl)oxy)ethan-1-one hydrochloride]
260 nM | Cc1csc(C2c3c(nc4cc(C(F)(F)F)ccn34)CCN2C(=O)COc2ccc3ccccc3c2)n1 (stereo not drawn) [Example 3.42.1, 1-(1-(4-methylthiazol-2-yl)-7-(trifluoromethyl)-3,4-dihydroimidazo[1,2-a:5,4-c′]dipyridin-2(1H)-yl)-2-(naphthalen-2-yloxy)ethan-1-one]
546 nM | CC(C)(O)c1ccc(C2c3c(nc4ccccn34)CCN2C(=O)COc2ccc(NS(C)(=O)=O)nc2Cl)c(F)c1 (stereo not drawn) [Example 1.16.2, N-(6-chloro-5-(2-(1-(2-fluoro-4-(2-hydroxypropan-2-yl)phenyl)-3,4-dihydroimidazo[1,2-a:5,4-c′]dipyridin-2(1H)-yl)-2-oxoethoxy)pyridin-2-yl)methanesulfonamide]
32 nM | COCCCOc1cc(C2c3c(nc4cc(Cl)ccn34)CCN2C(=O)COc2ccc3ccccc3c2)ccc1OC (stereo not drawn) [Example 2.11.1, 1-(7-chloro-1-(4-methoxy-3-(3-methoxypropoxy)phenyl)-3,4-dihydroimidazo[1,2-a:5,4-c′]dipyridin-2(1H)-yi)-2-(naphthalen-2-yloxy)ethan-1-one]
117 nM | COc1ccc(C2c3c(nc4cc(C(F)(F)F)ccn34)CCN2C(=O)COc2ccc3ncccc3c2)cc1OC (stereo not drawn) [Example 3.1.19]
84 nM | COc1ccc(C2c3c(nc4ccccn34)CCN2C(=O)COc2ccc(CN3CCOCC3)nc2Cl)c(F)c1 (stereo not drawn) [Example 1.3.1, 2-((2-chloro-6-(morpholinomethyl)pyridin-3-yl)oxy)-1-(1-(2-fluoro-4-methoxyphenyl)-3,4-dihydroimidazo[1,2-a:5,4-c′]dipyridin-2(1H)-yl)ethan-1-one]
78 nM | COc1ccc(C2c3c(nc4cc(C(F)(F)F)ccn34)CCN2C(=O)COc2nn(C)c(C(F)(F)F)c2Cl)cc1OC (stereo not drawn) [Example 3.1.25, 2-((4-chloro-1-methyl-5-(trifluoromethyl)-1H-pyrazol-3-yl)oxy)-1-(1-(3,4-dimethoxyphenyl)-7-(trifluoromethyl)-3,4-dihydroimidazo[1,2-a:5,4-c′]dipyridin-2(1H)-yl)ethan-1-one]
103 nM | COc1ccc(C2c3c(nc4cc(C(F)(F)F)ccn34)CCN2C(=O)COc2cc(F)ccc2Cl)cc1OC (stereo not drawn) [Example 3.1.14]
422 nM | COc1ccc(C2c3c(nc4cc(C(F)(F)F)ccn34)CCN2C(=O)COc2cccc(C(F)(F)F)c2)cc1OC (stereo not drawn) [Example 3.1.9]
